According to patent EP1980559A1, “Cardiovascular agents” (CTG Pharma S.r.l., priority 2007, dated 2008):

What was measured:
[1] = tested on: spontaneously hypertensive rats (SHRs); experiment: Antihypertensive activity in vivo: systolic blood pressure by telemetry in conscious SHRs; conditions: daily oral dose for 3 days, losartan 10 mg/kg po or equimolar dose; for Systolic blood pressure (SBP) 1 hr: 1 hr after dosing; for Systolic blood pressure (SBP) 12 hr: 12 hr after dosing; for Systolic blood pressure (SBP) 24 hr: 24 hr after dosing
Experimental: The ability of compound of example 1 to decrease blood pressure was evaluated in conscious spontaneously hypertensive rats (SHRs).
Three groups of SHRs (250-300g) received daily oral dose of losartan (10 mg/kg po) or compound of example 1 (equimolar dose) or vehicle (SHR control group) for 3 days. Systolic blood pressure (SBP) and heart rate were monitored by telemetry at different time points after dosing. The SBP was measured at baseline and after 1 hour, 12 hours and 24 hours.

NAD(P)H oxidases [2] = experiment: NAD(P)H oxidases inhibition: superoxide (O2^-) release by ferricytochrome c reduction in PAVSMCs; assay type: cell-based, porcine; conditions: PAVSMCs stimulated with LPS, TNFα and IL1α; 100 nM; 16 hours incubation
Experimental: (§1) The method described by Muzaffar S, Shukla N, Angelini GD, Jeremy JY; "Prednisolone augments superoxide formation in porcine pulmonary artery endothelial cells through differential effects on the expression of nitric oxide synthase and NADPH oxidase" in Br. J. Pharmacol. 2005 Ju1;145(5):688-97 was used.
(§2) Briefly lungs were obtained from male pigs of body weight ranging from 20 - 35 kg. Pulmonary arteries (PA) of between 3-4 mm diameter were dissected from the lungs within 30 minutes and placed in Dulbecco's Minimum Essential Medium (DMEM). The arteries were then cut into 2 mm segments for preparation of cell cultures. PAECs were grown in Endothelial Cell Growth Medium at 37°C in a 95% air-5% CO2 incubator. The measurement of superoxide (O2^-) release by cells was performed by detection of ferricytochrome c reduction.
(§3) The reduction of cytochrome c that was inhibitable with SOD reflected actual O2^- release. PAVSMCs and PAECS were seeded and incubated with the TXA2 analogue, U46619, isoprostane F2α,LPS (endotoxin) human recombinant IL-1α and human recombinant TNF-α, alone or with drugs for 16 hours. RESULTS
(§4) LPS, IL-1α, TNF-α and U46619 all promoted the formation of O2^- in both porcine pulmonary artery VSMCs (PAVSMCs) and endothelial cells (PAECS) compared to untreated controls following a 16 hour incubation. […]

[3] = tested on: isolated rabbit thoracic aorta preparations; experiment: Study on vascular tone: vasorelaxation in isolated rabbit thoracic aorta preparations; conditions: aorta rings contracted submaximally with noradrenaline (1 µM); concentration-response curve
Experimental: The ability of ARB derivatives to induce vasorelaxation in comparison to native ARB, was tested in vitro in isolated rabbit thoracic aorta preparations (Wanstall J. C. et al., Br. J. Pharmacol., 134:463-472, 2001). Male New Zealand rabbits were anaesthetized with thiopental-Na (50 mg/kg, iv), sacrificed by exsanguinations and then the thorax was opened and the aorta dissected.
Single ring preparations (4 mm in length) of thoracic aorta were set up in physiological salt solution at 37 °C in small organ chambers (5 ml). Each ring was mounted under 2g passive tension in 5 ml organ bath. Preparations were allowed to equilibrate for 1 h, then contracted submaximally with noradrenaline (NA, 1 µM) and, when the contraction was stable, acetylcholine (ACh, 10 µM) was added.
A relaxant response to ACh indicated the presence of a functional endothelium.

NAD(P)H oxidases [4] = experiment: NAD(P)H oxidases inhibition: superoxide (O2^-) release by ferricytochrome c reduction in PAECs; assay type: cell-based, porcine; conditions: PAECs stimulated with LPS, TNFα and IL1α; 100 nM; 16 hours incubation
Experimental: as §1, §2, §3, §4

| Structure (SMILES) | Systolic blood pressure (SBP) 1 hr [1] | Systolic blood pressure (SBP) 12 hr [1] | Systolic blood pressure (SBP) 24 hr [1] | Systolic blood pressure (SBP) Baseline [1] | formation of O2^- (NAD(P)H oxidases [2]) | relaxation [3] | formation of O2^- (NAD(P)H oxidases [4]) |
| --- | --- | --- | --- | --- | --- | --- | --- |
| CCCCc1nc(Cl)c(COC(=O)c2ccc(-c3cssc3=S)cc2)n1Cc1ccc(-c2ccccc2-c2nn[nH]n2)cc1 [Cpd EX.1, 4-(3-thioxo-3H-1,2-dithiol-4-yl)benzoic acid 2-butyl-4-chloro-1-[p-(o-1H-tetrazol-5-ylphenyl)-benzyl]imidazole-5-methyl ester] | 120 mm Hg | 121 mm Hg | 122 mm Hg | 145 mm Hg | – | – | – |
| CCCCc1nc(Cl)c(CO)n1Cc1ccc(-c2ccccc2-c2nn[nH]n2)cc1 [Losartan, losartan] | 135 mm Hg | 134 mm Hg | 135 mm Hg | 143 mm Hg | no significant effect | did not produce relaxation at any of the concentration tested | no significant effect |
